We go through ten molecules from paper PMC9324693, “α-Hydroxylactams as Efficient Entries to Diversely Functionalized Ferrociphenols: Synthesis and Antiproliferative Activity Studies” (Molecules, 2022).

One series concerns hTERT-RPE1. The series can be described thus: MTT cell viability assay on non-tumorigenic hTERT-RPE1 cells. It counts as cell-based. To be noted: for EC50: 96-well plates, 4000 cells/well, viability after 3 days by MTT, mean ± SD of three independent experiments; for toxicity on hTERT-RPE1 compared with MCF-7: comparison of EC50 values. How it is done: (§1) A prerequisite to further bioorthogonal modifications is to preserve the biological properties of ferrociphenol compounds. Then, the impact of some of the grafted substituents on the antiproliferative activity was examined by a classical MTT cell viability assay on the two breast cancer cell lines MDA-MB-231 and MCF-7 as well as on the non-tumorigenic cell line hTERT-RPE1 (Table 3). The two cancer cell lines were chosen since most of the previously reported data on ferrocifens were carried out on these cellular models. The experimental protocol is described in Section 3.14., and it is important to emphasize here that the EC50 values reported in Table 3 are not to be compared to the IC50 values reported in the literature, since the assay conditions are different. For this reason, we included as a reference the ferrocenyl derivative of hydroxytamoxifen Fc-OH-TAM-3 [8] that is known to be cytotoxic to numerous cell lines. […] This feature was taken into account when performing data fitting.
(§2) MDA-MB-231, MCF-7, and hTERT-RPE1 cells were obtained from ATCC. Cells were maintained in a monolayer culture in DMEM with phenol red with Glutamax I (MDA-MB-231) or 2 mM L-glutamine (MCF-7) or 15 mM HEPES (hTERT-RPE1) supplemented with 10% FBS at 37 °C in a humidified atmosphere and 5% CO2. Stock solutions of the complexes were prepared in DMSO. Cells were seeded in 96-well plates at a density of 4000 cells/well. After overnight attachment, a dilution series of the compounds were added in the medium, and cells were incubated for a further 72 h. […] Cell viability was evaluated by using a colorimetric method based on the tetrazolium salt MTT [3-(4,5-dimethylthiazol-2-yl)-2,5-diphenyltetrazolium bromide], which is reduced by viable cells to yield purple formazan crystals. After 72 h, the medium was removed and the cells were incubated with MTT solution in PBS (10 μL of a 5 mg/mL) for 2–3 h of incubation. The formed purple formazan crystals were dissolved in 100 μL DMSO by thorough shaking, and the absorbance at 560 nm was read using a microplate reader (FLUOstar OPTIMA, BMG Labtech, Ortenberg, Germany). Each test was performed with at least three replicates and repeated at least three times. EC50 were determined using Dr Fit software.

A further series has as its system MCF-7. The series can be described thus: MTT cell viability assay on MCF-7 cells. It counts as cell-based. The note with it: for EC50: 96-well plates, 4000 cells/well, viability after 3 days by MTT, mean ± SD of three independent experiments. Here is the method: as §1, §2
A further series has as its target T1, HRP (Armoracia rusticana, UniProt P00433).
T1 construct: purchased
T1 sequence (P00433 31-338 limits assumed): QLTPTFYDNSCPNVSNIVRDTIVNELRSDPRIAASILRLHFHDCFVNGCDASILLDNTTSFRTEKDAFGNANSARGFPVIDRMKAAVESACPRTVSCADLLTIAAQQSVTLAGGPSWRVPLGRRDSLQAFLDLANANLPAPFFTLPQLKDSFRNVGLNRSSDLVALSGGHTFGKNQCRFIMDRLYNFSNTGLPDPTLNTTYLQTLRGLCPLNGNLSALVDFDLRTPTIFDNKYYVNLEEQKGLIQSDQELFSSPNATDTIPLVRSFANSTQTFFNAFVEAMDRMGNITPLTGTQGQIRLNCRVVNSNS
Put plainly: Enzymatic oxidation with HRP and H2O2. Type of series: biochemical. To be noted: fourfold molar excess of H2O2, HRP, pH 8.1; λmax 571–572 nm. Here is the method:
Enzymatic oxidation of 19, 20, 22, 23, and 25 was performed with a fourfold molar excess of H2O2 in the presence of HRP at pH 8.1. […] This behavior is reminiscent of that previously observed for a structurally related diphenol complex, which lets us conclude that enzymatic oxidation of 19, 20, 22, 23, and 25 affords the corresponding quinone methide in the anionic phenolate form, regardless of the substituent grafted from the phthalimide ring.
Figure S51. UV-vis spectra of compounds 19, 20, 22, 23 and 25 (50 µM) treated by HRP (46 nM) and H2O2 (200 µM) in 0.2 M TRIS buffer pH 8.1. Conversion to the phenolate form of the quinone methides is assessed by the appearance of the characteristic bands at ca. 570 and 360 nm. […]

For another series, the system named is MDA-MB-231. The series can be described thus: MTT cell viability assay on MDA-MB-231 cells. Type of series: cell-based. To be noted: for EC50: 96-well plates, 4000 cells/well, viability after 3 days by MTT, mean ± SD of three independent experiments. Here is the method:
as §1, §2

The test system of series [1] is glioblastoma cell model U87. More on the design: method as in PMID 26136201. The note with it: cited from earlier work.
For series [2], the system named is triple negative breast cancer cell line MDA-MB-231. The note with it: measured after 5 days of incubation (stated for B and C); cited from earlier work.
The nature of series [3]: Solubility tests by shaking suspensions and RP-HPLC analysis of supernatants. Type of series: physicochemical. To be noted: for solubility in aqueous medium: water or PBS, shaken overnight at room temperature, RP-HPLC of supernatants, theoretical concentration 1 mM. How it is done:
Due to water insolubility being a known issue for the ferrocidiphenol family, we exploited this strategy to attach substituents that could increase their solubility in a biologically relevant context. Thus, attaching short and monodisperse PEG chains seemed interesting. The tetraethylene glycol chain was readily grafted to A to afford 22 in 79% yield at room temperature in less than 3 h.
Figure S50: Solubility studies by RP-HPLC analysis of compounds 18 (A), 20 (B) and […]
A given amount of compounds 18, 20 and 22 was weighted and suspended in a given volume of tested solvent (DMSO, MeOH, PBS and H2O) to reach a theoretical concentration of 1 mM. Suspensions were sonicated for 1 min and shaken at R.T. for 18 h. The resulting solutions were filtrated (pore size 0.2 µm) and diluted to 100 µM in MeCN (for the solutions in organic solvents). HPLC analysis was performed on Nucleodur C18 column, (100 Å , 5 µm, 4.6 x 150 mm, Macherey-Nagel) using […]
(also on this page, place not known: MeOH DMSO PBS – H2O A PBS MeOH DMSO PBS B H2O MeOH DMSO PBS – H2O C) […]

The test system of series [4] is NCI-60 panel of human cancer cells. More on the design: method as in PMID 30977944. To be noted: read-out: mean GI50 (half maximal growth inhibition); cited from earlier work.

Bounds are passed on as bounds.

On to “2,3-Dihydro-3-(2-methoxycarbonylethylthio)-2-[4-ferrocenyl-5,5-bis-(4-hydroxyphenyl)-ent-4-enyl]-1H-isoindol-1-one [Compound 25]”, for which the concentration for a half-maximal effect (EC50) in the series with hTERT-RPE1 was 9.1 ± 0.4 µM; in the series with MCF-7 it was 4.7 ± 1.4 µM; in the series with MDA-MB-231, 18 ± 0.4 µM. The “toxicity on hTERT-RPE1 compared with MCF-7” value in the series with hTERT-RPE1 is “twice more toxic”. Besides, the “enzymatic oxidation to quinone methide” value on HRP is on record as “rapidly converted to bright pink adducts”.

`O=C1c2ccccc2C(=O)N1CCCC(=C(c1ccc(O)cc1)c1ccc(O)cc1)[c-]1cccc1.[Fe+2].c1cc[cH-]c1` [A]: the IC50 in series [1] is 0.018 µM; in series [2] it was 0.145 µM.

As to `O=C1c2ccccc2C(=O)N1CCCC[c-]1cccc1.[Fe+2].c1cc[cH-]c1` [Compound 3h, N-(4-ferrocenylbutyl) Phthalimide], the EC50 with hTERT-RPE1, with MCF-7 and in the series with MDA-MB-231 was > 50 µM each time. Also, in the series on hTERT-RPE1 (MTT, 72 h), the “inhibition of cell growth, hTERT-RPE1” value is given as “did not inhibit cell growth”. Besides, the “inhibition of cell growth, MCF-7” value in the series with MCF-7 (MTT, 72 h) is given as “did not inhibit cell growth”. Besides, the “inhibition of cell growth, MDA-MB-231” value with MDA-MB-231 (MTT, 72 h) is “did not inhibit cell growth”.

On to `O=C1c2ccccc2C(CCO)N1CCCC(=C(c1ccc(O)cc1)c1ccc(O)cc1)[c-]1cccc1.[Fe+2].c1cc[cH-]c1` (stereo not drawn) [Compound 20, 2,3-Dihydro-3-(2-hydroxyethyl)-2-[4-ferrocenyl-5,5-bis-(4-hydroxyphenyl)-pent-4-enyl]-1H-isoindol-1-one], for which, in the series on hTERT-RPE1, the EC50 was 5 ± 0.2 µM and the “toxicity on hTERT-RPE1 compared with MCF-7” value is reported as “twice more toxic”. In series [3], the “solubility in organic solvents” value is recorded as “poorly soluble in organic solvents, except for DMSO” and the “solubility in aqueous medium” value is reported as “none of these compounds were soluble in aqueous medium”. Moreover, the EC50 in the series with MCF-7 was 10.6 ± 0.3 µM. Besides, at HRP, the “enzymatic oxidation to quinone methide” value is “rapidly converted to bright pink adducts”. Besides, the response in the series with MDA-MB-231 was half-maximal at 6.3 ± 2.1 µM (EC50).

On to `O=C1c2ccccc2C(CCCCCCO)N1CCCC(=C(c1ccc(O)cc1)c1ccc(O)cc1)[c-]1cccc1.[Fe+2].c1cc[cH-]c1` (stereo not drawn) [Compound 21, 2,3-Dihydro-3-(6-hydroxyhexyl)-2-[4-ferrocenyl-5,5-bis-(4-hydroxyphenyl)-pent-4-enyl]-1H-isoindol-1-one], for which the “solubility in organic solvents” value in series [3] was “improved the solubility in organic solvents including DCM”.

For `O=C1c2ccccc2C(OCCOCCOCCOCCO)N1CCCC(=C(c1ccc(O)cc1)c1ccc(O)cc1)[c-]1cccc1.[Fe+2].c1cc[cH-]c1` (stereo not drawn) [Compound 22, O-{2,3-Dihydro-2-[4-ferrocenyl-5,5-bis-(4-hydroxyphenyl)-pent-4-enyl]-1H-isoindol-1-one-3-yl}-12-hydroxy-1,4,7,10-tetraoxadodecane], the values for the EC50 with hTERT-RPE1, in the series on MCF-7 and in the series with MDA-MB-231 were 24.7 ± 1.1 µM, 29.9 ± 1.3 µM and 8.8 ± 2.5 µM, respectively. Besides, the “toxicity on hTERT-RPE1 compared with MCF-7” value in the series with hTERT-RPE1 is reported as “similar”. Moreover, in series [3], the “solubility in aqueous medium” value was “none of these compounds were soluble in aqueous medium”. The “enzymatic oxidation to quinone methide” value at HRP was “rapidly converted to bright pink adducts”.

As for `C#CCCCC1c2ccccc2C(=O)N1CCCC(=C(c1ccc(O)cc1)c1ccc(O)cc1)[c-]1cccc1.[Fe+2].c1cc[cH-]c1` (stereo not drawn) [Compound 23, 2,3-Dihydro-3-(pent-4-ynyl)-2-[4-ferrocenyl-5,5-bis-(4-hydroxyphenyl)-pent-4-enyl]-1H-isoindol-1-one], the EC50 is 12.9 ± 3.3 µM in the series on hTERT-RPE1, 4.2 ± 0.7 µM in the series on MCF-7 and 2.4 ± 0.5 µM with MDA-MB-231. Further, the “selectivity: less toxic on hTERT-RPE1 with respect to MCF-7” value in the series on hTERT-RPE1 (ratio of EC50 values) came out at 3 fold. Further, the “enzymatic oxidation to quinone methide” value on HRP was “rapidly converted to bright pink adducts”.

For `COCCOCCOCCOCCOCCOCCOCCSC1c2ccccc2C(=O)N1CCCC(=C(c1ccc(O)cc1)c1ccc(O)cc1)[c-]1cccc1.[Fe+2].c1cc[cH-]c1` (stereo not drawn) [Compound 27, S-{2,3-Dihydro-2-[4-ferrocenyl-5,5-bis-(4-hydroxyphenyl)-pent-4-enyl]-1H-isoindol-1-one-3-yl}-1-thia-4,7,10,13,16,19,22-heptaoxatricosane], the “solubility in aqueous medium” value in series [3] was “none of these compounds were soluble in aqueous medium”.

For the molecule `O=C1CCC(=O)N1CCCC(=C(c1ccc(O)cc1)c1ccc(O)cc1)[c-]1cccc1.[Fe+2].c1cc[cH-]c1` [Compound B], the GI50 in series [4] is ~0.1 µM. Besides, in series [2], the IC50 was 0.035 µM.

For the molecule “O-{2,3-Dihydro-2-[4-ferrocenyl-5,5-bis-(4-hydroxyphenyl)-pent-4-enyl]-1H-isoindol-1-one-3-yl}-24-azido-1,4,7,10,13,16,19,22-octaoxatetracosane [Compound 24]”, the “solubility in aqueous medium” value in series [3] was “none of these compounds were soluble in aqueous medium”.
